Assays:
human TLR7 = human TLR7 (Homo sapiens (Human), UniProt Q9NYK1); test: TLR7 inhibition reporter assay (HEK-Blue SEAP reporter, gardiquimod stimulation); assay type: cell-based; conditions: HEK-Blue cells overexpressing human TLR7, gardiquimod 7.5 μM
human TLR8 = human TLR8 (Homo sapiens (Human), UniProt Q9NR97); test: TLR8 inhibition reporter assay (HEK-Blue SEAP reporter, R848 stimulation); conditions: read-out: TLR8 IC50; HEK-Blue cells overexpressing human TLR8, R848 15.9 μM, SEAP reporter;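 further: SEAP driven by IFN-β minimal promoter with NF-κB and AP-1 sites, 22 h incubation, compounds 0.05 nM–50 µM, inhibition scaled between agonist plus DMSO and reference inhibitor wells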
human TLR9 = human TLR9 (Homo sapiens (Human), UniProt Q9NR96); test: TLR9 inhibition reporter assay (HEK-Blue SEAP reporter, ODN2006 stimulation); conditions: read-out: TLR9 IC50; HEK-Blue cells overexpressing human TLR9, ODN2006 5 nM, SEAP reporter;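 further: SEAP reporter under IFN-β minimal promoter with five NF-κB and AP-1 sites, 22 h incubation, compounds 0.05 nM–50 µM, inhibition relative to agonist plus DMSO versus known inhibitor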
Sequence of human TLR9 (Q9NR96 26-1032): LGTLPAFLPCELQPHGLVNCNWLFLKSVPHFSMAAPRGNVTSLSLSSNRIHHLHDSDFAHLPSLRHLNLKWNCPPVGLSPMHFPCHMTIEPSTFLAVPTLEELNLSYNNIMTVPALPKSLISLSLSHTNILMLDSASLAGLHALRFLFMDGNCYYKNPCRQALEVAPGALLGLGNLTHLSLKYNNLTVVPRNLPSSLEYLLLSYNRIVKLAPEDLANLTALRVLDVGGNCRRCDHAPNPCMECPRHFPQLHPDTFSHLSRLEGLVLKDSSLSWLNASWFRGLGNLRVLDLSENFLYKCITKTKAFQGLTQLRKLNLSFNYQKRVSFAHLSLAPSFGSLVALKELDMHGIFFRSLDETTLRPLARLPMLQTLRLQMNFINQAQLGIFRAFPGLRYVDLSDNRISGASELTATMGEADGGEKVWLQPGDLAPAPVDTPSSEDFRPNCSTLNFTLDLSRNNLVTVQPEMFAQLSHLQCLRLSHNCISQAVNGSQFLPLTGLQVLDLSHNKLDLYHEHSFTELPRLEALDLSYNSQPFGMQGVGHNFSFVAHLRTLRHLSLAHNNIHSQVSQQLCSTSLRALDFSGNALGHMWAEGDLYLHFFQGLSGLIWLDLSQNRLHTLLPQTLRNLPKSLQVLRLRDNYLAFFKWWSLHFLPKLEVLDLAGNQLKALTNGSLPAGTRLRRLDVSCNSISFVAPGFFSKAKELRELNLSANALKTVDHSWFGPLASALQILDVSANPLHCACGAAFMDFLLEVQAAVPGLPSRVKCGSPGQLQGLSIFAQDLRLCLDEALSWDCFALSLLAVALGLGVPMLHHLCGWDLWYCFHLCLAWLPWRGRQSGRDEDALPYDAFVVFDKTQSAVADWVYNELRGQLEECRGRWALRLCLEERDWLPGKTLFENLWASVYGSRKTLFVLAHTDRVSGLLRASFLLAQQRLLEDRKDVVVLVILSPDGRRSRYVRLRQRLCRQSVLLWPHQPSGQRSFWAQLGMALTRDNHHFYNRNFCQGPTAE

Sequence of human TLR7 (Q9NYK1 27-1049): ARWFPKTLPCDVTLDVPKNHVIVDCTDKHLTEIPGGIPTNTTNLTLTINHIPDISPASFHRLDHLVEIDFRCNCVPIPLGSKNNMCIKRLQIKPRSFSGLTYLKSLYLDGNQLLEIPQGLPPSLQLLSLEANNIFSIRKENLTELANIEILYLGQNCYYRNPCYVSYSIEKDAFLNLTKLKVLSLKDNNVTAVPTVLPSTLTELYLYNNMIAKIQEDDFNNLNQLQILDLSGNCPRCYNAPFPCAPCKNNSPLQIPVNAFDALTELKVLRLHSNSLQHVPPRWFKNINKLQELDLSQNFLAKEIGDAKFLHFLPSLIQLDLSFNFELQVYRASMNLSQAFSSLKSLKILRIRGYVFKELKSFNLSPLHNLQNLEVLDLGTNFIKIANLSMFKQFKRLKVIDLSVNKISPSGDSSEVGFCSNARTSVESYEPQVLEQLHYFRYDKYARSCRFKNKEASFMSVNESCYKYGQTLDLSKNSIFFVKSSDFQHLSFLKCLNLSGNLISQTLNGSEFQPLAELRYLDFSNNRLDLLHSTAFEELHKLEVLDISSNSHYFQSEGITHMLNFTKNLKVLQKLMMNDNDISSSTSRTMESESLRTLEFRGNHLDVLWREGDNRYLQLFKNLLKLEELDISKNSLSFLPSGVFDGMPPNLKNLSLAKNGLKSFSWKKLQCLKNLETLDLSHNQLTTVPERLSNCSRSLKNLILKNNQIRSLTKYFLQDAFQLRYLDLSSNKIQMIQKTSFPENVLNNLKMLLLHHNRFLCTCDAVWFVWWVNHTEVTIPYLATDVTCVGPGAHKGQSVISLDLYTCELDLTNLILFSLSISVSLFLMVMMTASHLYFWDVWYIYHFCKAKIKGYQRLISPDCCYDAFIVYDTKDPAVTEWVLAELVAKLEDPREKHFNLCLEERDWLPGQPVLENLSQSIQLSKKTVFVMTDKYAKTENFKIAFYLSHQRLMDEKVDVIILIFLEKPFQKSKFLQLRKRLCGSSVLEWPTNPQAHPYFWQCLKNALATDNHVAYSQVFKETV
Sequence of human TLR8 (Q9NR97 27-1041): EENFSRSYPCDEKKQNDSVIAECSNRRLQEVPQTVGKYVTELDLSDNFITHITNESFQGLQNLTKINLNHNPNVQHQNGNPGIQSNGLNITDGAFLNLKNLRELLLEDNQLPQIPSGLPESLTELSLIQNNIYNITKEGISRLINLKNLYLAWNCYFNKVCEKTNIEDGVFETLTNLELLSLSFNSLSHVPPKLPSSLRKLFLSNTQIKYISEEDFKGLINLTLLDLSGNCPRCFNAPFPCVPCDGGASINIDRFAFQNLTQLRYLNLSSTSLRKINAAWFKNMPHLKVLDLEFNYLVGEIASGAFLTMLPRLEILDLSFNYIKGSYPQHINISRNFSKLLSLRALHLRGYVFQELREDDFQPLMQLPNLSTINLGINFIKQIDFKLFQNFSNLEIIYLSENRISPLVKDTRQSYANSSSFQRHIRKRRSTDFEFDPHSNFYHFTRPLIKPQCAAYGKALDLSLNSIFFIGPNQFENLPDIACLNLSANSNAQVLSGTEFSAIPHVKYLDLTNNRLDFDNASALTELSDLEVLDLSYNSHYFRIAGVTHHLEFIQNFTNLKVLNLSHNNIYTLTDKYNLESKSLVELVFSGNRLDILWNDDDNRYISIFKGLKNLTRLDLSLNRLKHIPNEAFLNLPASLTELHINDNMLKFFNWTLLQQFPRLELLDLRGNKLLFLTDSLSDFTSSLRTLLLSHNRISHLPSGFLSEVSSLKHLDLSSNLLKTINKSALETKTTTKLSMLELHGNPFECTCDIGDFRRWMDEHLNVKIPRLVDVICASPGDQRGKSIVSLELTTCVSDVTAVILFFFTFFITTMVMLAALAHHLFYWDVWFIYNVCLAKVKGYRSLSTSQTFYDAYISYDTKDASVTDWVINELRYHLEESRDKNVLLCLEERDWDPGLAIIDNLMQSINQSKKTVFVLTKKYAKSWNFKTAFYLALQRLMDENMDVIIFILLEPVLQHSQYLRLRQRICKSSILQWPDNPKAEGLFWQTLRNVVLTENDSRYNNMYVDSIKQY

| SMILES | IC50 (human TLR7) | IC50 (human TLR8) | IC50 (human TLR9) |
| --- | --- | --- | --- |
| CCN(CC)C(=O)C1CCCN(CC(=O)N2CC3CN(C(=O)c4ccc5[nH]c(-c6ccc(OC)c(OC)c6)c(C(C)C)c5c4)CC3C2)C1 (racemic) [Example 8, 1-(2-{5-[2-(3,4-dimethoxyphenyl)-3-(propan-2-yl)-1H-indole-5-carbonyl]-octahydropyrrolo[3,4-c]pyrrol-2-yl}-2-oxoethyl)-N,N-diethylpiperidine-3-carboxamide] | 129 nM | 126 nM | 7520 nM |
| CCN(CC)C(=O)C1CCCN(CC(=O)N2CC3CN(C(=O)c4ccc5[nH]c(-c6ccc(OC)c(OC)c6)c(C(C)C)c5c4)CC3C2)C1 (single isomer, unassigned) [Example 10, 1-(2-{5-[2-(3,4-dimethoxyphenyl)-3-(propan-2-yl)-1H-indole-5-carbonyl]-octahydropyrrolo[3,4-c]pyrrol-2-yl}-2-oxoethyl)-N,N-diethylpiperidine-3-carboxamide] | 111 nM | 114 nM | 7630 nM |
| CCN(CC)C(=O)C1CCCN(CC(=O)N2CC3CN(C(=O)c4ccc5[nH]c(-c6ccc(OC)c(OC)c6)c(C(C)C)c5c4)CC3C2)C1 (single isomer, unassigned) [Example 11, 1-(2-{5-[2-(3,4-dimethoxyphenyl)-3-(propan-2-yl)-1H-indole-5-carbonyl]-octahydropyrrolo[3,4-c]pyrrol-2-yl}-2-oxoethyl)-N,N-diethylpiperidine-3-carboxamide] | 606 nM | 645 nM | 36000 nM |
| COc1ccc(-c2[nH]c3ccc(C(=O)N4CC5CNCC5C4)cc3c2C(C)C)cc1OC (centres unmarked) [Example 1, 2-(3,4-dimethoxyphenyl)-5-{octahydropyrrolo[3,4-c]pyrrole-2-carbonyl}-3-(propan-2-yl)-1H-indole] | 30 nM | 49 nM | 375 nM |
| COc1ccc(-c2[nH]c3ccc(C(=O)N4CCCN(C)CC4)cc3c2C(C)C)cc1OC [Example 2, (2-(3,4-dimethoxyphenyl)-3-isopropyl-1H-indol-5-yl)(4-methyl-1,4-diazepan-1-yl)methanone] | 45 nM | 4 nM | 3010 nM |
| COc1ccc(-c2[nH]c3ccc(C(=O)N(C)C)cc3c2C(C)C)cc1OC [Example 3, 2-(3,4-dimethoxyphenyl)-3-isopropyl-N,N-dimethyl-1H-indole-5-carboxamide] | 153 nM | 79 nM | > 50000 nM |
| CNC(=O)c1ccc2[nH]c(-c3ccc(OC)c(OC)c3)c(C(C)C)c2c1 [Example 4, 2-(3,4-dimethoxyphenyl)-3-isopropyl-N-methyl-1H-indole-5-carboxamide] | 145 nM | 27 nM | 30500 nM |
| COc1ccc(-c2[nH]c3ccc(C(=O)N4C[C@@H]5C[C@H]4CN5)cc3c2C(C)C)cc1OC [Example 5, ((1S,4S)-2,5-diazabicyclo[2.2.1]heptan-2-yl)(2-(3,4-dimethoxyphenyl)-3-isopropyl-1H-indol-5-yl)methanone] | 43 nM | 43 nM | 1380 nM |
| COc1ccc(-c2[nH]c3ccc(C(=O)N4CC5CN(CC(=O)N(C)C)CC5C4)cc3c2C(C)C)cc1OC (centres unmarked) [Example 6, 2-{5-[2-(3,4-dimethoxyphenyl)-3-(propan-2-yl)-1H-indole-5-carbonyl]-octahydropyrrolo [3,4-c]pyrrol-2-yl}-N,N-dimethylacetamide] | 180 nM | 180 nM | 5230 nM |
| CNC(=O)CN1CC2CN(C(=O)c3ccc4[nH]c(-c5ccc(OC)c(OC)c5)c(C(C)C)c4c3)CC2C1 (centres unmarked) [Example 7, 2-(5-(2-(3,4-dimethoxyphenyl)-3-isopropyl-1H-indole-5-carbonyl)hexahydropyrrolo[3,4-c]pyrrol-2(1H)-yl)-N-methylacetamide] | 343 nM | 267 nM | 4020 nM |
| COc1ccc(-c2[nH]c3ccc(C(=O)N4CC5CN(C(=O)CN(C)C)CC5C4)cc3c2C(C)C)cc1OC (centres unmarked) [Example 9, 1-(5-(2-(3,4-dimethoxyphenyl)-3-isopropyl-1H-indole-5-carbonyl)hexahydropyrrolo[3,4-c]pyrrol-2(1H)-yl)-2-(dimethylamino)ethan-1-one] | 76 nM | 54 nM | 5350 nM |
| CNCCN1CC2CN(C(=O)c3ccc4[nH]c(-c5ccc(OC)c(OC)c5)c(C(C)C)c4c3)CC2C1 (centres unmarked) [Example 12, (2-(3,4-dimethoxyphenyl)-3-isopropyl-1H-indol-5-yl)(5-(2-(methylamino)ethyl)hexahydropyrrolo[3,4-c]pyrrol-2(1H)-yl)methanone] | 274 nM | 175 nM | 1220 nM |
| COc1ccc(-c2[nH]c3ccc(C(=O)N4CC5CN(C)CC5C4)cc3c2C(C)C)cc1OC (centres unmarked) [Example 13, (2-(3,4-dimethoxyphenyl)-3-isopropyl-1H-indol-5-yl)(5-methylhexahydropyrrolo[3,4-c]pyrrol-2(1H)-yl)methanone] | 61 nM | 61 nM | 2160 nM |
| COc1ccc(-c2[nH]c3ccc(C(=O)N4CC5CN(C(C)C)CC5C4)cc3c2C(C)C)cc1OC (centres unmarked) [Example 14, (2-(3,4-dimethoxyphenyl)-3-isopropyl-1H-indol-5-yl)(5-isopropylhexahydropyrrolo[3,4-c]pyrrol-2(1H)-yl)methanone] | 40 nM | 26 nM | 1190 nM |
| COc1ccc(-c2[nH]c3ccc(C(=O)N4CC5CN(C6CCN(C)CC6)CC5C4)cc3c2C(C)C)cc1OC (centres unmarked) [Example 15, (2-(3,4-dimethoxyphenyl)-3-isopropyl-1H-indol-5-yl)(5-(1-methylpiperidin-4-yl)hexahydropyrrolo[3,4-c]pyrrol-2(1H)-yl)methanone] | 99 nM | 54 nM | 429 nM |
| CCc1c(-c2ccc(OC)c(OC)c2)[nH]c2ccc(C(=O)NC3CCC(N(C)C)CC3)cc12 (centres unmarked) [Example 19, 2-(3,4-dimethoxyphenyl)-N-(4-(dimethylamino)cyclohexyl)-3-ethyl-1H-indole-5-carboxamide] | 104 nM | – | 1390 nM |
| CCc1c(-c2ccc(OC)c(OC)c2)[nH]c2ccc(C(=O)N3CCC(N(C)C)CC3)cc12 [Example 31, (2-(3,4-dimethoxyphenyl)-3-ethyl-1H-indol-5-yl)(4-(dimethylamino)piperidin-1-yl)methanone] | 296 nM | – | 4930 nM |
| CCc1c(-c2ccc(OC)c(OC)c2)[nH]c2ccc(C(=O)N3CCN(C4CCN(C)CC4)CC3)cc12 [Example 36, (2-(3,4-dimethoxyphenyl)-3-ethyl-1H-indol-5-yl)(4-(1-methylpiperidin-4-yl)piperazin-1-yl)methanone] | 138 nM | – | 1930 nM |
| CCc1c(-c2ccc(OC)c(OC)c2)[nH]c2ccc(C(=O)N[C@H]3CC[C@H](N)CC3)cc12 [Example 47, N-((1r,4r)-4-aminocyclohexyl)-2-(3,4-dimethoxyphenyl)-3-ethyl-1H-indole-5-carboxamide] | 150 nM | – | 2790 nM |
| CCc1c(-c2ccc(OC)c(OC)c2)[nH]c2ccc(C(=O)NCCN3CCCCC3)cc12 [Example 49, 2-(3,4-dimethoxyphenyl)-3-ethyl-N-(2-(piperidin-1-yl)ethyl)-1H-indole-5-carboxamide] | 144 nM | – | 2410 nM |
| CCc1c(-c2ccc(OC)c(OC)c2)[nH]c2ccc(C(=O)NCCc3ccncc3)cc12 [Example 50, 2-(3,4-dimethoxyphenyl)-3-ethyl-N-(2-(pyridin-4-yl)ethyl)-1H-indole-5-carboxamide] | 382 nM | – | 19900 nM |
| CCc1c(-c2ccc(OC)c(OC)c2)[nH]c2ccc(C(=O)NCCc3cccnc3)cc12 [Example 51, 2-(3,4-dimethoxyphenyl)-3-ethyl-N-(2-(pyridin-3-yl)ethyl)-1H-indole-5-carboxamide] | 705 nM | – | > 50000 nM |
| CCc1c(-c2ccc(OC)c(OC)c2)[nH]c2ccc(C(=O)N3CCN(c4cnccn4)CC3)cc12 [Example 58, (2-(3,4-dimethoxyphenyl)-3-ethyl-1H-indol-5-yl)(4-(pyrazin-2-yl)piperazin-1-yl)methanone] | 194 nM | 110 nM | – |
| CCc1c(-c2ccc(OC)c(OC)c2)[nH]c2ccc(C(=O)N3CCN(c4ccccn4)CC3)cc12 [Example 59, (2-(3,4-dimethoxyphenyl)-3-ethyl-1H-indol-5-yl)(4-(pyridin-2-yl)piperazin-1-yl)methanone] | 1140 nM | – | > 50000 nM |
| Cc1cc(-c2[nH]c3ccc(C(C)C(=O)NCCC(C)(C)O)cc3c2C(C)C)ccn1 (centres unmarked) [Example 132, N-(3-hydroxy-3-methylbutyl)-2-(3-isopropyl-2-(2-methylpyridin-4-yl)-1H-indol-5-yl)propanamide] | 947 nM | 964 nM | – |
| Cc1cc(-c2[nH]c3ccc(C(C)(C)C(=O)N4CCCC(CCN)C4)cc3c2C(C)C)ccn1 (centres unmarked) [Example 154, 1-(3-(2-aminoethyl)piperidin-1-yl)-2-(3-isopropyl-2-(2-methylpyridin-4-yl)-1H-indol-5-yl)-2-methylpropan-1-one] | 58 nM | 256 nM | – |
| Cc1c(-c2[nH]c3ccc(C(=O)N4CCN(C)CC4)cc3c2C(C)C)cn(C)c(=O)c1Cl [Example 220, 3-chloro-5-(3-isopropyl-5-(4-methylpiperazine-1-carbonyl)-1H-indol-2-yl)-1,4-dimethylpyridin-2(1H)-one] | 141 nM | 2.1 nM | – |
| CCCN1CCC(N(C(=O)c2ccc3[nH]c(-c4cn(C)c(=O)c(Cl)c4C)c(C(C)C)c3c2)C2CC2)CC1 [Example 221, 2-(5-chloro-1,4-dimethyl-6-oxo-1,6-dihydropyridin-3-yl)-N-cyclopropyl-3-isopropyl-N-(1-propylpiperidin-4-yl)-1H-indole-5-carboxamide] | – | 0.7 nM | 2940 nM |

Source: patent US11420973B2, “Amide substituted indole compounds useful as TLR inhibitors” (BRISTOL-MYERS SQUIBB COMPANY, priority 2017, dated 2022)
